How the values were obtained:
retinal ganglion cells = assay: Survival of axotomized retinal ganglion cells after intraorbital optic nerve transection; assay type: in vivo; details: ovarectomized adult female rats, twice daily subcutaneous injection in oil, two days prior to eight days following transection; counted after an additional 4 weeks
Procedure: The drugs were dissolved in sesame oil (Penta) at 100 ug/ml. Adult female rats to be used in these experiments were first ovarectomized. Rats were then subjected to intraorbital transection of the optic nerve, a procedure that leads to progressive degeneration of the majority of retinal ganglion cells. Cells survive for a few days and then die abruptly such that by one week only 50% survive and by two weeks only 10% survive. Axotomy is well known to lead to the death of retinal ganglion cells by an apoptotic process, causing classical cytochemical alterations characteristic of programmed cell death.
From two days prior to eight days following optic nerve transactions, 17β-estradiol, ent-17β-estradiol, or appropriate amount of vehicle control sample was administered to the animals by a twice daily subcutaneous injection of compound in oil at 100 ug/ml (see above), such that the final concentration delivered was 100 ug/. If the protective compounds to be used are in a water soluble formulation, they can, alternatively, be delivered by a single intravitreal injection. […]
After an additional 4 weeks, the retinal ganglial cells were labeled by retrograde staining with the carbocyanine dye, 4Di-10Asp, which was applied to the nerve stump. Three days later animals were sacrificed and surviving retinal cells were counted in retinal whole mounts. […]

[1] = system: SHSY-5Y neuroblastoma cells; assay: FRET assay of Ca+2-induced mitochondrial membrane potential (ΔΨm) collapse in neuroblastoma cells; assay type: cell-based; details: FIG. 1; right shift of dose response curve compared to control
Procedure: With reference to FIG. 1, mitochondria rapidly take up exogenous Ca^+2 to a maximum value before undergoing an irreversible loss of ΔΨm. ΔΨm was monitored after exposure to Ca^+2 concentrations ranging from 0 to 50 uM using a fluorescence resonance energy transfer (FRET) assay (Dykens and Stout, 2001). Cells were preincubated with 17β-estradiol and 17α-estradiol at 0.5 uM for 2.5 hrs. prior to Ca^+2 challenge, which was imposed by adding Ca^+2 directly to cells that had been permeabilized with digitonin (0.008%) final concentration, 5 min). The response, calculated as area under the curve, was plotted versus log Ca^+2 concentration using sigmoid regression analysis.
The excitation dye in the FRET ΔΨm assay is nonyl acridine orange (NAO). NAO is an exceptionally selective stain for cardiolipin, a lipid found intracellularly almost exclusively (>99%) in the mitochondrial inner membrane. Its staining of the inner membrane is independent of ΔΨm. […]
Because uptake and retention of TMR depends on ΔΨm, at a given dye concentration, the extent of quenching of NAO by TMR reflects the magnitude of ΔΨm. […] The corresponding loss of proximity abolishes quenching of NAO, so that loss of ΔΨm is detected as an increase in NAO fluorescence.

[2] = system: Transformed rat retinal ganglion cells (RGC-5 cells); assay: FRET assay of Ca+2-induced ΔΨm collapse in transformed retinal ganglion cells; assay type: cell-based; details: FIG. 2; for extent of mitochondrial failure at the highest Ca+2 concentration: P<0.05 via ANOVA; for extent of mitochondrial collapse compared to buffer-treated controls: compound 5 minutes prior to Ca+2
From the text: Transformed rat retinal ganglion cells (RGC-5 cells) were produced by transforming Sprague-Dawley rat retinal cells from postnatal day I rats with replication incompetent Ψ2 EIA virus and was originally established to help illuminate the basic mechanisms underlying RGC apoptosis in glaucoma (Krishnomoorthy, et al., 2001). The cells express the specific cellular marker, Thy-1, consistent with their retinal ganglion cell origin. Confirmation of Thy-1 expression was made by RT-PCR, immunocytochemistry and immunoblot analysis. […] The toxicity response with glutamate has an EC50 of about 50 uM. Importantly, transformed RGC cells undergo TUNEL-positive apoptotic-mediated cell death upon serum deprivation, indicating the presence of classical apoptosis pathways induced by mitochondrial dysfunction and/or failure.
Possible mitochondrial responses of our compounds are evaluated in intact RGC-5 cells using an assay for mitochondrial ΔΨm which is based on fluorescence energy transfer (FRET) between two dyes that colocalize to the mitochondria. The FRET assay circumvents the confounding variables of plasma membrane potential and the low flourcscence efficiency typical of single potentiometric dyes (Dykens and Stout, 2001). Transformed retinal ganglion cells (RGC-5) were plated at a concentration of 60K cells/well twenty-four hours prior to the experiment. The cells were permeabilized in place with 0.08% digitonin. Cells were exposed to 17β-estradiol, 17α-estradiol, and a non-hormonal PPC, Compound H (see Example 5), for 5 minutes prior to the addition of Ca^+2.
The excitation dye in the FRET ΔΨm assay is nonyl acridine orange (NAO). NAO is an exceptionally selective stain for cardiolipin, a lipid found intracellularly almost exclusively (>99%) in the mitochondrial inner membrane. Its staining of the inner membrane is independent of ΔΨm. The second dye is tetramethylrhodamine (TMR), a potentiometric dye that is sequestered into the mitochondrial matrix as a Nernstian function of ΔΨm and imposed concentration. It is the specificity of NAO staining for cardiolipin, combined with the absolute prerequisite for close proximity of both dyes, that allows this FRET assay to report ΔΨm without interference from plasma membrane potential.
Because uptake and retention of TMR depends on ΔΨm, at a given dye concentration, the extent of quenching of NAO by TMR reflects the magnitude of ΔΨm. Dissipation of ΔΨm, in response to […], elevated Ca+2 load, or respiratory […], results in efflux of TMR from the mitochondrion. The corresponding loss of proximity abolishes quenching of NAO, so that loss of ΔΨm is detected as an increase in NAO fluorescence.

[3] = system: mouse HT-22 hippocampal cells; assay: Protection against glutamate toxicity, calcein AM viability; assay type: cell-based; details: glutamate 10 mM, 16 hours, representative study; read-out: Calculated EC50 for protection of cell viability
Procedure: For instance, in this study, mouse HT-22 hippocampal cells were cultured in DMEM supplemented with 10% fetal calf serum. Cells were plated and simultaneously treated with glutamate (10 mM) and one of the test compounds individually, for instance compound H (also referred to as Compound 4565 in FIG. 2 and one of many protective PPCs disclosed in PCT publications WO02/36605 and WO00/63228), below or positive control 17β-estradiol (E), at various doses between 10 nM and 10 µM. After 16 hours, cell viability was determined using the calcein AM fluorescence (Excitation/Emission 485/530 […]) in a Bio-Tex Microplate Fluorescence Reader.

cell culture models = details: doses as low as; cited from earlier work
retinal ganglion layer = details: administered prior to the insult; several days following reperfusion; cited from earlier work
[4] = system: Human retinal pigment epithelial cells (RPE340 cells); assay: Survival of retinal pigment epithelial cells under hyperoxia (Trypan blue exclusion); assay type: cell-based; details: 40% O2 hyperoxia, 5 days, compound 2 nM
Procedure: Human retinal pigment epithelial cells (RPE340 cells) were grown and subjected to conditions of hyperoxia according to Honda et al., (2001) Invest Ophthalmol Vis. Sci., Vol. 42, pp. 2139-44. The cells were subjected to either 40% O2 or 20% O2 (control) for the duration of the experiment. These conditions are known to induce apoptotic cell death.
Compounds A and B, above, were initially dissolved at 1 mg/ml in absolute ethanol and diluted in culture medium to a final concentration of 2 nM. To control for possible ethanol effects in the treated wells, all batches of media used here were supplemented with absolute ethanol at appropriate concentrations. Cells were incubated under hyperoxic conditions with either compound A, compound B or no compound added for a period of 5 days. Effects on cell viability and growth were monitored by Trypan blue exclusion.

[5] = system: Trabecular meshwork cells; assay: Survival of primary trabecular meshwork cells under toxic conditions (live-dead dyes); assay type: cell-based; details: hydrogen peroxide 100 uM, 24 hours, compound 2nM
Procedure: Trabecular meshwork cells used here were grown from fresh explants obtained from normal donors according to the procedures described in Agarwal et al., (1999) Exp Eye Res., Vol. 68, pp. 583 90 and Hogg et al., (2000) Invest Ophthalmol Vis. Sci., Vol. 41, pp. 1091-8. Cells were toxic conditions by exposure to hydrogen peroxide at 100 uM for 24 hours, which typically kills at least 50% of cells. With different batches of cells, the hydrogen peroxide concentration necessary to obtain 50% cell death frequently needs to be determined empirically. Trabecular cell viability was assessed using commercially available live-dead dyes. Other stains such as stains for DNA fragmentation or annexin binding are also suitable.
Compounds C and D, above, were initially dissolved at lmg/ml in absolute ethanol and diluted in culture medium to a final concentration of 2nM. To control for possible ethanol effects in the treated wells, all batches of media used here as were supplemented with absolute ethanol at appropriate concentrations. Cultured trabecular cells were incubated under toxic conditions with either compound C, compound D or no compound added for a period of 24 hours. Trabecular cell viability was assessed using commercially available live-dead dyes.

[6] = system: Transformed rat retinal ganglion cells (RGC-5 cells); details: read-out: EC50 of toxicity response; cited from earlier work

C[C@]12CC[C@@H]3c4ccc(O)cc4CC[C@H]3[C@@H]1CC[C@@H]2O [17β-estradiol]
number of surviving retinal ganglial cells compared to the controls (retinal ganglion cells): 3 fold | amount of Ca+2 required to induce ΔΨm collapse [1]: substantially increase | extent of mitochondrial failure at the highest Ca+2 concentration [2]: significantly lowered | extent of mitochondrial collapse compared to buffer-treated controls [2]: moderated | EC50 [3]: 2200 nM | dose giving substantial cytoprotection (cell culture models): 0.2 nM | cell density in the retinal ganglion layer (retinal ganglion layer): significantly higher

C[C@]1(C=O)CC[C@@H]2c3ccc(O)cc3CC[C@H]2C1 [compound B, [2S-(2a, 4aα, 10aβ)]-1,2,3,4,4a, 9, 10, 10a-octahydro-7-hydroxy-2-methyl-2-phenanthrenecarboxaldehyde]
protection from cell death [4]: protect these cells from cell death

C[C@]12CC[C@@H]3c4cc(C56CC7CC(CC(C7)C5)C6)c(O)cc4CC[C@H]3[C@@H]1CCC2=O [C, 2-(1-Adamantyl)-3-hydroxyestra-1,3, 5 (10)-trien-17-one]
survival of trabecular cells [5]: significantly improve survival

C[C@]12CC[C@@H]3c4ccc(O)cc4CC[C@H]3[C@@H]1CC[C@H]2O [17α-estradiol]
amount of Ca+2 required to induce ΔΨm collapse [1]: substantially increase | extent of mitochondrial failure at the highest Ca+2 concentration [2]: significantly lowered | extent of mitochondrial collapse compared to buffer-treated controls [2]: moderated | dose giving substantial cytoprotection (cell culture models): 0.2 nM

CC(C)(C)c1cc2c(cc1O)CC[C@@H]1[C@@H]2CC[C@]2(C)C(=O)CC[C@@H]12 [D, 2-(1-tertbutyl)-3-hydroxyestra-1,3, 5 (IO)-trien-17-one]
survival of trabecular cells [5]: significantly improve survival

C[C@@]12CC[C@H]3c4ccc(O)cc4CC[C@@H]3[C@H]1CC[C@H]2O (single isomer, unassigned; ent-17) [ent-17β-estradiol]
number of surviving retinal ganglial cells compared to the controls (retinal ganglion cells): 3 fold

N[C@@H](CCC(=O)O)C(=O)O [glutamate]
EC50 [6]: ~50 µM

C[C@]1(CO)CC[C@@H]2c3ccc(O)cc3CC[C@H]2C1 [compound A, [2S-(2a, 4aα, 10aβ)]-1,2,3,4,4a,9,10,10a-octahydro-7-hydroxy-2-methyl-2-phenanthrenemethanol]
protection from cell death [4]: protect these cells from cell death
